The results in this text go back to ChEMBL document CHEMBL5726682, “Autotaxin inhibitor compounds” (2017).

In general, IC50 refers to the concentration at which inhibition is half-maximal.

SMILES strings stand for the structures.

For the assay, the target named is Autotaxin (Homo sapiens, UniProt Q13822). Put plainly: Inhibition Assay: ATX activity is assayed in concentrated conditioned media from Hep3B human hepatocellular carcinoma cells by measuring the amount of choline released from the substrate, lysophosphatidylcholine (LPC) as it is cleaved to LPA. Conditioned media is collected from confluent Hep3B cells and concentrated 20-fold using Centriprep-30 filter devices (Millipore). To assay for autotaxin inhibition, 10-20 μL of the concentrated conditioned media is incubated with 2.5 μL of a test compound in DMSO and 72.5-82.5 μL lyso-PLD buffer (100 mM Tris pH 9, 500 mM NaCl, 5 mM MgCl2, 5 mM CaCl2, 0.05% Triton X-100 in the presence or absence of 0.2% fatty-acid-free human serum albumin) for 15 min at 37° C. After the 15 min incubation, 5 uL of 2 mM LPC (14:0; Avanti Polar Lipids Cat#855575C) diluted in lyso-PLD buffer is added for a final concentration of 100 uM and the incubation continues for 1.5-3 hours at 37° C. 100 μL of a color mix containing 4.5 mM 4-aminoantipyrine, 2.7 mM N-ethyl-N-(2-hydroxy-3-sulfopropyl)-m-toluidine, 21 units/ml horseradish peroxidase and 3 units/mL choline oxidase in 50 mM Tris, pH 8, 4.5 mM MgCl2 is added and the incubation continued for 15 minutes at room temperature before reading the absorbance at 555 nm.

Turning to `Cc1c(Sc2cccc(C(=O)O)c2)c2ccc(Cl)c(F)c2n1CC(=O)N1CCCCC1CCn1cccn1` (centres undefined), the IC50 was < 500 nM.

Take `Cc1c(Sc2cccc(C(=O)O)c2)c2ccc(Cl)c(F)c2n1CCC(=O)Nc1ccccc1`: the IC50 was < 500 nM. On to `O=C(O)c1cccc(Sc2c(Cl)n(CC(=O)N3CC4(CC4)c4ccccc43)c3c(F)c(Cl)ccc23)c1F`, for which the IC50 was < 500 nM.

With `Cc1c(Sc2cccc(C(=O)O)c2)c2ccc(Cl)c(F)c2n1CC(=O)N1CCC2(COC2)C1`, the IC50 was < 500 nM.

Regarding `Cc1c(Sc2cccc(C(=O)O)c2)c2ccc(Cl)cc2n1C(=O)NCc1ccccc1`, the IC50 was > 3000 nM. As to `O=C(O)c1cccc(Sc2c(C3CC3)n(CC(=O)N3CC4(CC4)c4ccccc43)c3c(F)c(Cl)ccc23)c1F`, the concentration for half-maximal inhibition (IC50) was < 500 nM. The figure for `Cc1c(Sc2cccc(C(=O)O)c2)c2ccc(Cl)c(F)c2n1CC(=O)N1CCC(C#N)C1` (centres undefined) is < 500 nM; for `Cc1c(Sc2cccc(C(=O)O)c2)c2ccc(Cl)c(F)c2n1CC(=O)N1CCc2ccc(C(F)(F)F)cc21` it is < 500 nM. For `Cc1c(Sc2cccc(C(=O)O)c2F)c2ccc(Cl)c(F)c2n1CC(=O)N1CCC(C(C)(C)O)C1` (centres undefined), the IC50 was < 500 nM. For `Cc1c(Sc2cccc(C(=O)O)n2)c2ccc(Cl)c(F)c2n1CC(=O)N1CCC2(CC1)CNC(=O)O2` the value was < 500 nM. In the case of `Cc1c(Sc2cccc(C(=O)O)c2)c2ccc(Cl)c(F)c2n1CC(=O)N1CC2(CCN(C)CC2)C1`, the IC50 was < 500 nM. For the compound `Cc1c(Sc2cccc(C(=O)O)c2)c2ccc(Cl)c(F)c2n1CC(=O)N1CCc2c(F)cccc21`, the IC50 was < 500 nM. For `O=C(O)c1cccc(Sc2c(C3CC3)n(CC(=O)N3CCC(O)(C(F)(F)F)C3)c3c(F)c(Cl)ccc23)c1F` (centres undefined) the value was < 500 nM; for `O=C(O)c1cccc(Sc2c(C3CC3)n(CCN3CC4(CCC4)c4ccccc43)c3c(F)c(Cl)ccc23)c1F`, < 500 nM; for `Cc1c(Sc2cccc(C(=O)O)c2)c2ccc(Cl)c(F)c2n1CC(=O)N1CC2(CCN(C)CC2)c2ccccc21`, < 500 nM. For `Cc1c(Sc2cccc(C(=O)O)c2)c2ccc(Cl)c(F)c2n1CC(=O)N1CCC(c2cnn(C)c2)CC1` the value was < 500 nM; for `O=C(O)c1cccc(Sc2c(C3CC3)n(CC(=O)N3CC4(CCC4)c4ccccc43)c3c(F)c(Cl)ccc23)c1F`, < 500 nM; for `Cc1c(Sc2cccc(C(=O)O)n2)c2ccc(Cl)c(F)c2n1CC(=O)N1CCC(O)(C(F)(F)F)C1` (centres undefined), < 500 nM. As for `O=C(O)c1cccc(Sc2c(Cl)n(CC(=O)N3CCC(O)(C(F)(F)F)C3)c3c(F)c(Cl)ccc23)c1F` (centres undefined), the IC50 is < 500 nM.
